Consider 2 molecules from publication PMC10382042, “Brevetoxin versus Brevenal Modulation of Human Nav1 Channels” (Marine Drugs, 2023).

The target in one assay is human Nav1.5 (Homo sapiens, UniProt Q14524). Kind of assay: cell-based. The following applies: for EC50: read-out: Nav1.5 Ipeak EC50. The class given is cell-based. Here is the method: Functional modulation of recombinant human voltage-gated sodium (Nav) channels exposed to marine PbTx-3 and brevenal was assessed by automated patch-clamp electrophysiology. Neuronal Nav1.2 (CNS) and Nav1.7 (PNS), in addition to muscle Nav1.4 (skeletal) and Nav1.5 (cardiac) sodium channels, were patch-clamped in mammalian cells. Whole-cell currents mediated by human Nav1.4 and Nav1.7 overexpressed in CHO-K1 cells, as well as human Nav1.2 and Nav1.5 overexpressed in HEK293 cells, were recorded at room temperature. Currents were elicited by 25 ms test pulses to −20 mV from a holding potential (Vh) of −120 mV, delivered for 5 min at 0.1 Hz, after each full-bath solution exchange to allow current amplitude and kinetics to reach a steady state.
Current traces were scaled to maximal Ipeak and are presented as insets in Figure 2 to underline the effects (or lack thereof) of PbTx-3 and brevenal on the current kinetics of the four Nav isoforms studied. Inactivation time constants (τinact) in control and the presence of PbTx-3 and brevenal were estimated by exponential fits (see Methods) to the current decay between 15% and 85% of the depolarizing pulse. Single exponential fits adequately described τinact for the neuronal and the skeletal muscle Nav isoforms, whereas a double exponential fit was required to approximate open channel inactivation of the cardiac Nav current. Consistent with the enhancement of Ilate observed for Nav1.2, Nav1.4, and Nav1.5 in the presence of PbTx-3, significant concentration-dependent increases in the Yinf asymptote were detected (Tables S1–S3). These were mirrored by brevenal exposure in Nav1.2- and Nav1.4-mediated currents. Nevertheless, the estimated τinacts appeared insensitive to PbTx-3 and brevenal modification, with the notable exception of Nav1.4, for which high concentrations of PbTx-3 and brevenal caused a measurable slowing of the open channel inactivation time constant (Table S2).
(§1) Recording solutions: The extracellular solution contained (in mM) 140 NaCl, 5 KCl, 2 CaCl2, 2 MgCl2, 10 glucose, and 10 HEPES (pH 7.4 with NaOH, 298 ± 3 mOsmol/k g). Control intracellular solution (in mM): 60 CsF, 70 CsCl, 10 EGTA, 10 glucose, and 10 HEPES (pH 7.2 with CsOH, 285 ± 3 mOsmol/kg). Intracellular exposure to brevenal (1 μM) was achieved by including it in the control intracellular solution during chip filling.
HEK293 cells heterologously expressing human Nav1.2 (Scottish Biomedical, a kind gift from the Petrous lab, Florey Institute of Neuroscience and Mental Health, Melbourne, VIC Australia) and Nav1.5 (ChanTest Corp., Cleveland, OH, USA) were cultured in DMEM containing 10% v/v FBS and selection antibiotics to enable stable expression as per the manufacturer’s recommendation. CHOK1 expressing Nav1.4 and Nav1.7 (ChanTest) was cultured in DMEM/F12 containing 10% v/v FBS and selection antibiotics supporting stable expression as recommended by the manufacturer. Cells were maintained in a humidified 5% CO2 incubator at 37 °C, grown in T25 flasks to 70–80% confluence, and passaged every 3–4 days using TrypLE Express (Invitrogen). After harvesting with TrypLE, cells were resuspended to 10^5 cells/mL in cold extracellular solution and allowed to recover for 30 min at 4 °C before recording.
(§2) Electrophysiology: Automated patch-clamp (APC) recordings were performed in a PatchLiner Octo (Nanion Technologies GmbH, Munich, Germany) equipped with two EPC-10 quadro patch-clamp amplifiers (HEKA Electronik, Lambrecht/Pfalz, Germany). PatchControl HT (Nanion) was used for cell capture, seal formation, and establishment of the whole-cell configuration, whilst voltage was controlled and currents were sampled with PatchMaster (HEKA Electronics). Recordings were performed under the whole-cell configuration using single-hole planar medium resistance NPC-16 chips (Rchip, resistance of ~2.5 MΩ) at room temperature (22–24 °C).
Cells between passages 6 and 12 were used. […]

For a further assay, the target named is human Nav1.4 (Homo sapiens, UniProt P35499). The assay is described as follows: Automated patch-clamp I-V relationship (voltage dependence of activation, Gmax), Nav1.4. The class given is cell-based. The method, then: (§3) The voltage dependence of recombinant Nav channel-mediated currents exposed to PbTx-3 and brevenal was evaluated using current–voltage (I-V) relationships built for Ipeak and Ilate elicited by a standard stimulation protocol (25 ms, −100 to +60 mV, Vh −120 mV, 0.1 Hz).
Chain of human Nav1.4 (P35499 whole entry): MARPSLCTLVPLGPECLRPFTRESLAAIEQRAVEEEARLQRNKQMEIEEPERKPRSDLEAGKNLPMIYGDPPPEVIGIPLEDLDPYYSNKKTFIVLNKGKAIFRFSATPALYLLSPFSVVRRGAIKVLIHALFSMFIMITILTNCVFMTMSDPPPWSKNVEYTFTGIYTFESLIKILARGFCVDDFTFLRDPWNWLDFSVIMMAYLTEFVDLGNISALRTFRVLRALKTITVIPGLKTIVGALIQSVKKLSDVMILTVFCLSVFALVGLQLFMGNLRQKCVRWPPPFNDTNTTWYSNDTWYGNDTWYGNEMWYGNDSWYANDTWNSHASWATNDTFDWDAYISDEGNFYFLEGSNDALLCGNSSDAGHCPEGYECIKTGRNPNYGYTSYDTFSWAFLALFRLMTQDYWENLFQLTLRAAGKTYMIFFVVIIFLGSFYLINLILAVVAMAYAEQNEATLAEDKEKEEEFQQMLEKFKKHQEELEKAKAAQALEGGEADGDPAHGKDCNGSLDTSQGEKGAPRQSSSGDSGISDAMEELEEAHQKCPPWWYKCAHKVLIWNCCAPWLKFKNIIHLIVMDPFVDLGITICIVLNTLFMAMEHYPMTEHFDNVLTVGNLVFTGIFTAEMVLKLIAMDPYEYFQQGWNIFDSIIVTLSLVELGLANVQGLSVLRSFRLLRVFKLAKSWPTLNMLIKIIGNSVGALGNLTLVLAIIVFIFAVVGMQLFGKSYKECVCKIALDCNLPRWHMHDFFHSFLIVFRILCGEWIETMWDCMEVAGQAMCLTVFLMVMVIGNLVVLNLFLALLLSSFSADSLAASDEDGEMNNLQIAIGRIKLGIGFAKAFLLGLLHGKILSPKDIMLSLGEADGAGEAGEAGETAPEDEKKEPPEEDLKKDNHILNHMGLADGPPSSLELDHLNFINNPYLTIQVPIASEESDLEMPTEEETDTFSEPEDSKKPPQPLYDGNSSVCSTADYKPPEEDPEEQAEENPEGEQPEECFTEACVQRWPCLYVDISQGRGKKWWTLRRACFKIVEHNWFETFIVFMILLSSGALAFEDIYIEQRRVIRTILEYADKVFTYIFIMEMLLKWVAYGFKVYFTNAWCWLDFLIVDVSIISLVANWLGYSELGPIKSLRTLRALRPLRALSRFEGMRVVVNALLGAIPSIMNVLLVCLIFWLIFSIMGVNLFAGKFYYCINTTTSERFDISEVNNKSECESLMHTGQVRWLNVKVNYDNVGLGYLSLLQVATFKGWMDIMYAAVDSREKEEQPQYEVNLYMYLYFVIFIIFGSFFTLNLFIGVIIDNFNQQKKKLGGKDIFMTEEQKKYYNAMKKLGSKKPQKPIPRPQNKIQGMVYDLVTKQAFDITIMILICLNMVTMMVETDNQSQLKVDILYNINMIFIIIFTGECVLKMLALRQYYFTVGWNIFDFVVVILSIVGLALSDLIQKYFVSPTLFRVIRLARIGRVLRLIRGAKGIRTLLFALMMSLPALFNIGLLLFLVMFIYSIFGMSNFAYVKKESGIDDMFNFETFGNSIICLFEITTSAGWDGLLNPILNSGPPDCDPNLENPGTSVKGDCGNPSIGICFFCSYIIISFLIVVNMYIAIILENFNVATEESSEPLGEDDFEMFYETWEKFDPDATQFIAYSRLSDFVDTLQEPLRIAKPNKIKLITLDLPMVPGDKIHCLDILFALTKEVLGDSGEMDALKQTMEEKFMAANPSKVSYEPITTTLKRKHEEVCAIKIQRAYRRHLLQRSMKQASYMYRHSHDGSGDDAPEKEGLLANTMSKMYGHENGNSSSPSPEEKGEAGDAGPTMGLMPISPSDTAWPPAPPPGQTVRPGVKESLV
[…] […] To investigate the possibility of overlapping binding of these compounds within Nav channels, Nav whole-cell currents were recorded using an intracellular solution supplemented with brevenal (Brevenali = 1 μM). After equilibration, extracellular PbTx-3o (1 μM) was applied and its modulatory effects over the current kinetics and voltage dependence of activation were compared.
(§4) Figure 4 and Figure 5 display representative current traces mediated by human recombinant Nav channels in control and upon exposure to PbTx-3 and brevenal. I-V plots from the normalized peak and late (when present) currents amplitudes (Ipeak/Ipeak^max and Ilate/Ipeak^max) were fitted to a Boltzmann function rendering the half-maximal activation potential (V0.5) and normalized macroscopic conductance (Gmax) parameters (see Section 4). The changes in V0.5 (ΔV0.5 = V0.5^Comp − V0.5^Ctr) and relative Gmax (Gmax^Rel = Gmax^Comp/Gmax^Ctr) observed in the presence of PbTx-3 and brevenal and control conditions were then calculated and compared for all assayed conditions.
as §1, §2
(§5) Peak I–V curves were fitted using:I(V) = (V − Vrev) × Gmax/(1 + exp ((V0.5 − V)/Vslope) where I is the macroscopic current, V is the command potential, Vrev is the reversal potential (mV), Gmax is the maximal conductance, V0.5 is the half-activation potential (mV), and Vslope is the slope factor (mV/e-fold).

A further assay concerns the target human Nav1.7 (Homo sapiens, UniProt Q15858). The assay is described as follows: Automated patch-clamp I-V relationship (voltage dependence of activation, Gmax), Nav1.7. The class given is cell-based. Here is the method:
as §3
The effects of extracellular exposure to PbTx-3 (PbTx-3o = 1 μM) and brevenal (Brevenalo = 10 μM) on the activation of Nav channels in neuronal and muscle cells were examined under normal intracellular ionic conditions. […] To investigate the possibility of overlapping binding of these compounds within Nav channels, Nav whole-cell currents were recorded using an intracellular solution supplemented with brevenal (Brevenali = 1 μM). After equilibration, extracellular PbTx-3o (1 μM) was applied and its modulatory effects over the current kinetics and voltage dependence of activation were compared.
as §4, §1, §2, §5

Assay [1] deals with nodose ganglion neuron Navs. The conditions noted are these: cited from earlier work.

“And” between values parts separate entries of the source, which are not always exact repeats. Identical values can stand only once. Like-named read-outs stand apart in the source and are kept apart here.

Chain of human Nav1.7 (Q15858 whole entry): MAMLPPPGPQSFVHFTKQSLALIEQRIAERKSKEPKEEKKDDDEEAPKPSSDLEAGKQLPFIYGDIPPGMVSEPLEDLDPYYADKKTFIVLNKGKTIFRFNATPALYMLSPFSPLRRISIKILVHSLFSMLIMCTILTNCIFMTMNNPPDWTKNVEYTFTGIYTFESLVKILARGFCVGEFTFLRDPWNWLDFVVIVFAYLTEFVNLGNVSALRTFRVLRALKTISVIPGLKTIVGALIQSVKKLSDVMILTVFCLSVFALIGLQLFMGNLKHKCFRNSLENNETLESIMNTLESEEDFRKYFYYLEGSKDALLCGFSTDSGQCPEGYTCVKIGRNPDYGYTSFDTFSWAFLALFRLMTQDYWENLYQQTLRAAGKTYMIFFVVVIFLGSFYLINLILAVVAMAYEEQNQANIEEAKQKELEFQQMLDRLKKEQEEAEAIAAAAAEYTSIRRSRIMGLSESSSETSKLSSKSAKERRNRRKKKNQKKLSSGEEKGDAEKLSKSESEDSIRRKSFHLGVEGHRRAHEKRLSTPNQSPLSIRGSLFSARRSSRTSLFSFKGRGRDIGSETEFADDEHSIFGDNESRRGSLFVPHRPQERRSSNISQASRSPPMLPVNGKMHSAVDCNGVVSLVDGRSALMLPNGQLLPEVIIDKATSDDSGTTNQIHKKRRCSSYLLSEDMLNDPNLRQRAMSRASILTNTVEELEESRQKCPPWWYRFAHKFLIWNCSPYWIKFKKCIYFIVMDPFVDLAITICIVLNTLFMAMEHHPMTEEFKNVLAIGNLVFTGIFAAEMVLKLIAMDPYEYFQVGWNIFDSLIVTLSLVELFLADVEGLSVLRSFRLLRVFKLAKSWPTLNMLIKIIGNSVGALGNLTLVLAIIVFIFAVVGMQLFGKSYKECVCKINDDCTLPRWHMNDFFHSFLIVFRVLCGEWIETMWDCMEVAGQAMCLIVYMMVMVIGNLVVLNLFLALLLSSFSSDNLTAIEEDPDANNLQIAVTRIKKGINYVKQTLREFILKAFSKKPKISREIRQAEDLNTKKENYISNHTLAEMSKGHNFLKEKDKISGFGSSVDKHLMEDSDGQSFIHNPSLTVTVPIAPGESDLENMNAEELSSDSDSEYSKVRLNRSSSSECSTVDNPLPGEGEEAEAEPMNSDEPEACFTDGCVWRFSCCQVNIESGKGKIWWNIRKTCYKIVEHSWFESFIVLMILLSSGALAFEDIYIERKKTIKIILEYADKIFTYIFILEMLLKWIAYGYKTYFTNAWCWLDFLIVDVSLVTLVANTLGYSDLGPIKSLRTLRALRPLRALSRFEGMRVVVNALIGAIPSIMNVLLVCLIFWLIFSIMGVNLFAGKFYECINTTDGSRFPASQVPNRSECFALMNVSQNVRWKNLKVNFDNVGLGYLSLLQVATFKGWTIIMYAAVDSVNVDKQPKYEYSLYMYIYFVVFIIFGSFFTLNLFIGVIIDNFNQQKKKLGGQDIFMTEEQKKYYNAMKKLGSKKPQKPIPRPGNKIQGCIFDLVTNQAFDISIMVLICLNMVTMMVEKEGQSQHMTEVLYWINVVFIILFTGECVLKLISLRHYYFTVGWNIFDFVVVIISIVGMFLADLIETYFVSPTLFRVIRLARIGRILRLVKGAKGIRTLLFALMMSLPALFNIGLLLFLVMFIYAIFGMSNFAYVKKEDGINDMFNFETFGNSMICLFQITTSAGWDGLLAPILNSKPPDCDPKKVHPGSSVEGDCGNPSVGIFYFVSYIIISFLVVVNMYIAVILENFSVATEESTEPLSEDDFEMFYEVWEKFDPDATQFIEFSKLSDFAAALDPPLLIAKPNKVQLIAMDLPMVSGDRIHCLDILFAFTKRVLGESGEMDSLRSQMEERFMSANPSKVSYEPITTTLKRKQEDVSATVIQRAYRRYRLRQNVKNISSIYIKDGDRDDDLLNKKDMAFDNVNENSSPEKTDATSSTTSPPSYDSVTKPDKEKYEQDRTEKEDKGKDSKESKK

`C=C/C=C\CC[C@H]1O[C@H]2CC[C@@]3(C)O[C@H]4[C@@H](O)C[C@@]5(C)O[C@@H](CC/C=C(C)/C(C)=C/C=O)[C@@H](C)C[C@H]5O[C@@H]4C[C@@H]3O[C@@H]2CC[C@@]1(C)O` [Brevenal]: at human Nav1.5 (10^-5 M, n = 4), the “Nav1.5 A1Rel” value was 0.77±0.05, the “Nav1.5 τ 1inact” value was 0.44 ± 0.01 ms and the “Nav1.5 τ 2inact” value amounted to 1.79 ± 0.06 ms. Besides, on human Nav1.5 (10^-6 M, n = 4), the “Nav1.5 A1Rel” value amounted to 0.77±0.07, the “Nav1.5 τ 1inact” value turned out to be 0.46 ± 0.01 ms and the “Nav1.5 τ 2inact” value came to 2.05 ± 0.21 ms. Besides, at human Nav1.5 (10^-9 M, n = 4), the “Nav1.5 A1Rel” value is given as 0.73±0.07, the “Nav1.5 τ 1inact” value came out at 0.45 ± 0.01 ms and the “Nav1.5 τ 2inact” value was 1.77 ± 0.34 ms. Moreover, on human Nav1.5 (inhibition of peak current, −20 mV, Vh −120 mV, n = 5), the concentration giving a half-maximal response (EC50) was determined as 17 nM. Moreover, the “Nav1.5 Ilate FC^Max (maximal fold change)” value at human Nav1.5 (not significant vs control, −20 mV, Vh −120 mV, n = 5) was found to be 1.3 ± 0.2. Moreover, at human Nav1.5 (test pulse −20 mV, Vh −120 mV, extracellular, n = 5), the “Nav1.5 Ipeak FC^Max (maximal fold change)” value is 0.4 ± 0.1. Also, on human Nav1.4 (Brevenalo 1 μM), the “inhibition of Nav1.4 Gmax” value was ~ 70%. At human Nav1.4 (Brevenalo 1 μM, n = 7), the “Gmax^Rel of Nav1.4” value is given as 0.3 ± 0.02 and the “depolarizing shift in V0.5 of Nav1.4” value was determined as 4.9 ± 1.1 mV. Besides, on human Nav1.4 (Ctro:Brevenali, n = 4, control −31.8 ± 0.5 mV), the “Nav1.4 V0.5” value is reported as −26.4 ± 2.8 mV. Further, the “right shift of Nav1.4 activation vs control intracellular” value on human Nav1.4 (brevenal 1 μM in the intracellular solution) is given as ~ 5 mV. The “Nav1.7 V0.5” value on human Nav1.7 (Brevenali-occupied channels (intracellular 1 μM), n = 4, control −20.0 ± 2.4 mV) is recorded as −16.6 ± 1.7 mV. For the same molecule, the “decrease in Nav1.7 Gmax” value on human Nav1.7 (Brevenalo 10 μM) is reported as ~ 10%. Moreover, the “Gmax^Rel of Nav1.7” value at human Nav1.7 (Brevenalo 10 μM, n = 5) turned out to be 0.9 ± 0.1. In addition, the “shift in V0.5 of Nav1.7” value on human Nav1.7 (Brevenalo 10 μM, n = 6) is reported as −4.5 ± 0.4 mV.

For the molecule `C=C(CO)C[C@@H]1C[C@H](O)[C@]2(C)OC3CC4OC5C[C@]6(C)O[C@]7(C)CCC8OC9C[C@]%10(C)OC%11C(C)=CC(=O)OC%11CC%10OC9C[C@@H](C)C8OC7CC6O[C@@]5(C)C/C=C\C4OC3CC2O1` (some centres unmarked) [PbTx-3, Brevetoxin PbTx-3], at human Nav1.5, the “Nav1.5 A1Rel” value is 0.82±0.05 and 0.72±0.01 and 0.71±0.06; the “Nav1.5 A2Rel” value was 0.18±0.05 and 0.28±0.01 and 0.29±0.06; the “Nav1.5 Ilate FC^Max (maximal fold change)” value stood at 1.8 ± 0.1; the “Nav1.5 Ipeak FC^Max (maximal fold change)” value is 0.2 ± 0.1. At human Nav1.5, the “Nav1.5 τ 1inact” value is 0.46 ± 0.03 ms and 0.48 ± 0.06 ms and 0.45 ± 0.02 ms; the “Nav1.5 τ 2inact” value is 2.42 ± 0.52 ms and 2.67 ± 0.78 ms and 1.48 ± 0.31 ms; the EC50 is 2.2 nM. Further, at human Nav1.4, the “Gmax^Rel of Nav1.4” value is 0.3 ± 0.05 and 0.4 ± 0.1; the “hyperpolarizing shift in V0.5 of Nav1.4” value came to 9.2 ± 1.5 mV; the “inhibition of Nav1.4 Gmax” value was ~ 70%; the “inhibition of Nav1.4 Ipeak” value was “completely inhibited”. On human Nav1.4, the “ΔV0.5 of Nav1.4 activation” value worked out at 3.1 ± 2.6 mV. On human Nav1.7, the “decrease in Nav1.7 maximal conductance” value is reported as ~ 70%, the “leftward shift in activation ΔV0.5 of Nav1.7” value is reported as 6.8 ± 0.7 mV and the “shift in the voltage dependence of activation of Nav1.7” value is −10.0 ± 0.6 mV. Besides, in assay [1], the “fold increase in the mean apparent single-channel open time” value was ~ 2 fold; the “lower conductance (sub-conductance) levels of PbTx-3-modified nodose Navs” value is 10.7 pS and 21.2 pS.
